Reference: patent publication US20240165056A1, “USE OF TAMOXIFEN AND RELATED COMPOUNDS TO REDUCE BREAST IMPLANT CAPSULE FORMATION AND CAPSULAR CONTRACTURE” (Ohio State Innovation Foundation, priority 2021, published 2024)

Columns and labels:
Format in all cases: in vivo, mice
CD68 = experiment: Immunohistochemistry of implant capsule: CD68 macrophage infiltration; conditions: 75 mg/kg i.p. daily; explant at 2 weeks
Procedure: (§1) Eight-week-old C57BL/6 or Beige (C57BL/6J-Lyst^bg-J/J) female mice (Jackson Labs, Bar Harbor, ME, USA) (N=10/group) were treated with daily tamoxifen or vehicle injections into the intraperitoneal cavity 1 week before surgery. Tamoxifen injections consisted of 75 mg/kg tamoxifen citrate (Sigma, St. Louis MO, USA) in peanut oil (Sigma, St Louis MO, USA) with 10% ethanol (Sigma, St. Louis MO, USA) to promote dissolution of tamoxifen, while control injections consisted of only peanut oil and ethanol. Daily injections continued until the day of explantation, two weeks after implantation.
(§2) Mice were anesthetized with a standard ketamine/xylazine cocktail. […]
(§3) Explanted silicone pieces and surrounding capsules were fixed overnight in formaldehyde at 4° C. and transitioned to 70% ethanol. […] Primary antibody binding was detected by subsequent incubation with species appropriate biotinylated IgG (Vector Laboratories, CA, USA), followed by streptavidin-horse radish peroxidase (Vector Laboratories, CA, USA) and chromogenic development with 3,3-diaminobenzidine (Vector Laboratories, CA, USA). […] Slides were imaged on a Zeiss Axio Observer Z1 inverted microscope (Zeiss, Germany) and quantified using ImageJ (NIH, USA). […]
(§4) All statistical analysis was performed in Prism 8.0 (GraphPad, San Diego, CA, USA). Data was evaluated for outliers using the Grubb's test. […]

[1] = tested on: fibrous capsule around silicone implants; experiment: Silicone breast implant capsule formation in mouse model (H&E, Picro-Sirius Red histology)
Procedure: as §1
(§5) Mice were anesthetized with a standard ketamine/xylazine cocktail. Fur was clipped and skin was prepped with betadine followed by alcohol pads. Silicone prostheses were implanted in the submammary plane, bilaterally, giving a total of 20 implants per experimental group (FIG. 1B). Skin incisions were re-approximated with 6-0 nylon suture (FIG. 1C).
(§6) After 2 weeks, mice were euthanized and the silicone prostheses were removed en bloc with all surrounding tissue, including the overlying skin for orientation (FIG. 1D). […] These samples were excluded from further analysis owing to the potential confounding nature of bacterial contamination on capsule formation.
Explanted silicone pieces and surrounding capsules were fixed overnight in formaldehyde at 4° C. and transitioned to 70% ethanol. Samples were then paraffin embedded and sectioned at 4 μm. Samples were stained with H&E (FIG. 1E) or Picro-Sirius Red. Immunohistochemistry sections were deparaffinized, rehydrated and blocked for endogenous peroxidase activity (3% H2O2 in H2O) and nonspecific background staining (3% normal goat serum in Background Sniper, BioCare Medical, CA, USA). Antigen retrieval was performed with citrate buffer (pH 6.0) or Tris-EDTA (pH 9.0) in a pressure cooker for 10 minutes and slides were incubated for 30 minutes at room temperature with primary antibodies. Primary antibodies (all from Abcam, Cambridge, UK) included α-SMA (ab124964), CD31 (ab28364), CD68 (ab125212), iNOS (ab15323), CD163 (ab182422), Ki67 (ab15580), ER-α (ab271827), and ER-β (ab3576). Primary antibody binding was detected by subsequent incubation with species appropriate biotinylated IgG (Vector Laboratories, CA, USA), followed by streptavidin-horse radish peroxidase (Vector Laboratories, CA, USA) and chromogenic development with 3,3-diaminobenzidine (Vector Laboratories, CA, USA). Tissue sections were counterstained with Gill's hematoxylin (Vector Laboratories, CA, USA), slides were dehydrated and a cover slip was placed. Slides were imaged on a Zeiss Axio Observer Z1 inverted microscope (Zeiss, Germany) and quantified using ImageJ (NIH, USA).
Histology was quantified from H&E slides within the fibrous capsule on the side oriented with overlying skin to maintain consistency and remove potential variability by dissection at explantation.
(§7) All statistical analysis was performed in Prism 8.0 (GraphPad, San Diego, CA, USA). Data was evaluated for outliers using the Grubb's test. Control and tamoxifen-treated groups were compared with unpaired t-tests, except in cases where the equal variance assumption was violated; when the nonparametric Mann-Whitney test was utilized. A p-value of 0.05 was considered significant.

iNOS = experiment: Immunohistochemistry of implant capsule: iNOS pro-inflammatory macrophages; conditions: 75 mg/kg i.p. daily; explant at 2 weeks
Procedure: as §1, §2, §3, §4

[2] = tested on: Estrogen receptor α (ER-α); experiment: Immunohistochemistry of implant capsule: ER-α; conditions: 75 mg/kg i.p. daily; explant at 2 weeks
Procedure: as §1, §2, §3, §4

[3] = tested on: estrogen receptor β (ER-β); experiment: Immunohistochemistry of implant capsule: ER-β; conditions: 75 mg/kg i.p. daily; explant at 2 weeks
Procedure: as §1, §2, §3, §4

CD31 = experiment: Immunohistochemistry of implant capsule: CD31 neovascularization; conditions: 75 mg/kg i.p. daily; explant at 2 weeks
Procedure: as §1, §2, §3, §4

Ki-67 = experiment: Immunohistochemistry of implant capsule: Ki-67 cellular proliferation; conditions: 75 mg/kg i.p. daily; explant at 2 weeks
Procedure: as §1, §2, §3, §4

[4] = Mouse body weight during tamoxifen treatment in silicone implant model; conditions: 75 mg/kg tamoxifen citrate i.p. daily
Procedure: as §1, §5, §6, §7

CD163 = experiment: Immunohistochemistry of implant capsule: CD163 anti-inflammatory macrophages; conditions: 75 mg/kg i.p. daily; explant at 2 weeks
Procedure: as §1, §2, §3, §4

[5] = tested on: Alpha smooth muscle actin (αSMA); experiment: Immunohistochemistry of implant capsule: αSMA myofibroblasts; conditions: 75 mg/kg i.p. daily; explant at 2 weeks
Procedure: as §1, §2, §3, §4

[6] = Picro-Sirius Red, 75 mg/kg i.p. daily, explant at 2 weeks

CC/C(=C(\c1ccccc1)c1ccc(OCCN(C)C)cc1)c1ccccc1 [tamoxifen]
cellular fraction of CD68 (CD68): 55.9±16.0% | linear density of CD68+ cells (CD68): 303.3±136.5 cells/mm | cellularity of the capsules ([1]; 75 mg/kg i.p. daily, explant at 2 weeks): 3624±608 cells/mm^2 | capsule thickness ([1]; 75 mg/kg tamoxifen citrate i.p. daily, explant 2 weeks after implantation): 132±49 μm | area percent of collagen [1, 6]: 36.2±3.1% | total collagen surrounding the implants [1, 6]: 43598±10044 μm^2 | reduction in capsule thickness ([1]; tamoxifen-treated vs control, explant at 2 weeks): 59% | cellular fraction of iNOS (iNOS): 60.6±12.6% | total number of cells with positivity for iNOS (iNOS): 290.6±104.2 cells/mm | ER-α expression as a fraction of total cells [2]: 31.0±6.3% | ER-α total cells/mm of capsular tissue [2]: 107.0±39.8 cells/mm | ER-β expression, cellular fraction [3]: 36.8±7.5% | ER-β total cells/mm [3]: 106.2±69.2 cells/mm | CD31+ vessels per mm^2 (CD31): 106.3±51.8 vessels/mm^2 | total CD31+ vessels (CD31): 15.9±9.7 vessels/mm | Ki-67+ cells/mm (Ki-67): 324±125 cells/mm | cellular fraction of Ki-67+ cells (Ki-67): 62.4±16.9% | body weight at the date of surgery ([4]; one week after start of injections): 16.2±1.6 gram body weight | body weight at the start of the injection period ([4]; start of injections, 1 week before surgery): 17.6±1.2 gram body weight | body weight at the two-week explant date ([4]; two weeks after implantation): 16.6±1.0 gram body weight | cellular fraction of CD163 (CD163): 29.1±8.4% | total number of cells with positivity for CD163 (CD163): 94.1±45.9 cells/mm | linear density of αSMA+ cells [5]: 295±121 cells/mm | percentage of total cells αSMA+ [5]: 47.9±9.5%
